The values below come from patent US11160798B2, “Neuroprotective CB2 receptor agonists” (THE CLEVELAND CLINIC FOUNDATION, priority 2012, dated 2021).

One test concerns the target rCB1 (Rattus norvegicus, UniProt P20272). Particulars: cited from earlier work.
In test [1] the test system is CA1 neurons. Description: Long-term potentiation (LTP) in hippocampal CA1 slices. The format is in vivo, rat. Conditions: for average LTP: Aβ+MDA7 group (15 mg/kg i.p. 14 days), n=9. As to the method:
(§1) Animals were divided into several groups ([…]). The Aβ1-40 group received bilateral intracerebral microinjection of Aβ1-40 fibrils once and saline intraperitoneally (i.p.) daily for 14 days. The Aβ1-40+MDA7 group received bilateral intracerebral microinjection of Aβ1-40 fibrils once and 15 mg/kg MDA7 i.p. daily for 14 days. Other cohorts received smaller doses of MDA7 (5 mg/kg or 1.5 mg/kg) i.p. daily for 14 days to determine the dose-response characteristics for MDA7. In other groups, AM630 (a CB2 antagonist) 5 mg/kg i.p. was administered daily for 14 days either alone (Aβ1-40+AM630 group) or 15 min prior to MDA7 (15 mg/kg i.p.) administration (Aβ1-40+MDA7+AM630 group) to rats injected with β1-40 fibrils. MDA7 group and control group received bilateral intracerebral microinjection of artificial cerebrospinal fluid (130 mM NaCl, 2.6 mM KCl. 4.3 mM MgCl2 and 1.8 mM CaCl2) once and 15 mg/kg MDA7 or saline i.p. daily for 14 days, respectively. Intraperitoneal administration of AM630, MDA7 or saline started on the same day after intracerebral microinjection of Aβ1-40. All drugs were prepared coded. Decoding was performed at the end of all experiments.
Hippocampal slice preparation. Brain slices containing hippocampus were prepared. Brain slices used for electrophysiological recording were obtained from all rats (n=10-12 rats per group) that had been subjected to the Morris water maze test. All rats were anesthetized with pentobarbital and then euthanized by decapitation. […]
(§2) Whole-cell patch clamp recordings in hippocampal slices. […] The series resistance was optimally compensated by ≥70% and constantly monitored throughout the experiments. […] Excitatory postsynaptic currents (EPSCs) were recorded in the CA1 area in the presence of GABAA antagonist bicuculline (30 μM). The evoked EPSCs were filtered at 2 kHz, digitized at 10 kHz, and acquired and analyzed using Axograph X software. The amplitude of EPSCs was monitored for a baseline period of at least 15 min. […]

For the next test, the system named is Aβ1-40. The test can be described thus: Clearance of Aβ1-40 injected in the hippocampal CA1 area (immunofluorescence). It counts as in vivo, rat. Conditions: Aβ1-40-injected rats, 15 mg/kg per day for 14 days; hippocampal CA1. How it is done:
as §1
Microinjection of amyloid fibrils into the hippocampal CA1 area. Rats were anesthetized with sodium pentobarbital (45 mg/kg i.p.) and restrained in a stereotaxic apparatus. Aβ1-40 fibrils were formed as described previously. […]
Immunostaining. […] Three to six sections from each rat were randomly selected and were analyzed using Leica DMLB fluorescence microscope (Leica Microsystems Wetzlar GmbH, Germany) by one investigator, who was blinded to the origin of tissue being examined. Images were quantified using MCID Core software version 7.0 (InterFocus Imaging Ltd, Cambridge, England).

Test [2] relates to CA1 neurons. Description: Evoked EPSCs (basal glutamatergic strength) in hippocampal CA1 slices, whole-cell patch clamp. It counts as in vivo, rat. As to the method: Animals were divided into several groups (40-50 rats per group). The Aβ1-40 group received bilateral intracerebral microinjection of Aβ1-40 fibrils once and saline intraperitoneally (i.p.) daily for 14 days. The Aβ1-40+MDA7 group received bilateral intracerebral microinjection of Aβ1-40 fibrils once and 15 mg/kg MDA7 i.p. daily for 14 days. Other cohorts received smaller doses of MDA7 (5 mg/kg or 1.5 mg/kg) i.p. daily for 14 days to determine the dose-response characteristics for MDA7. In other groups, AM630 (a CB2 antagonist) 5 mg/kg i.p. was administered daily for 14 days either alone (Aβ1-40+AM630 group) or 15 min prior to MDA7 (15 mg/kg i.p.) administration (Aβ1-40+MDA7+AM630 group) to rats injected with β1-40 fibrils. […]
as §2
In general terms: The patch-clamp technique gives a direct electrical read-out from membranes.

The structures appear in SMILES notation.

Sequence of rCB1 (P20272 whole entry): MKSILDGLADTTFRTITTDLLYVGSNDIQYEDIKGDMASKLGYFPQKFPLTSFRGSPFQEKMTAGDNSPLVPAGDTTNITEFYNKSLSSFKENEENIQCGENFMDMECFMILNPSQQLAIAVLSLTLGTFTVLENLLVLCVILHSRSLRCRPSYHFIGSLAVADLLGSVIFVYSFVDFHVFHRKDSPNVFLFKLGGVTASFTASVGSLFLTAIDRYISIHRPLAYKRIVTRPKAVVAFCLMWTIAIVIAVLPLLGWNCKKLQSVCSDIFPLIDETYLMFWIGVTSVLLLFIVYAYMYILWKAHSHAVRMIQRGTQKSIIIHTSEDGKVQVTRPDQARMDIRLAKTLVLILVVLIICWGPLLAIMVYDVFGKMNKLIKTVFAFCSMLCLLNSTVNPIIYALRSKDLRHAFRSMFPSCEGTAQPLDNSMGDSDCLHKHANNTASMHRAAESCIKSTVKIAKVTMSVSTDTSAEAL

With `CC1(Cc2ccccc2)COc2cc(C(=O)N3CCCCC3)ccc21` (stereo not shown) [MDA7, 3-benzyl-3-methyl-2,3-dihydrobenzofuran-6-carboxylic acid-piperidine amide], the “EC50 at rCB1” value on rCB1 is listed as “not active”. Moreover, the “average LTP” value amounted to 214.5±23.6% with CA1 neurons [1] (30 min after induction) and 195.7±21.8% in the test with CA1 neurons [1] (60 min after induction). Moreover, in the test on CA1 neurons [1] (hippocampal slices of control rats (no Aβ1-40)), the “induction of LTP, treatment alone” value is “failed to significantly affect”. Besides, the “clearance of injected Aβ1-40” value in the test with Aβ1-40 was “induced removal of Aβ1-40”. Besides, in the test with CA1 neurons [2] (Aβ1-40-injected rats, 15 mg/kg i.p. for 14 days, all three stimulus intensities), the “amplitude of evoked EPSCs in CA1 neurons” value was “restored”. Also, the “basal glutamatergic strength, treatment alone” value with CA1 neurons [2] (MDA7 group (no Aβ1-40) vs control group) is listed as “not different”.
